Data as given in US20260176320A1, “MODULATORS OF G-PROTEIN COUPLED RECEPTORS” (priority 2018, published 2026).
Where two headings read alike, the source gives them in different places.

Tests used:
GLP-1R = GLP-1R (Homo sapiens, UniProt P43220); assay: HitHunter cAMP assay (GLP-1R); assay type: cell-based; settings: cAMP; for Emax: read-out: (Emax) GLP-1R
Summary of the method: (§1)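 Agonist stimulation lasts 30 min at room temperature on 10,000 cells per well, with phosphodiesterase blocked by 625 μM IBMX. Accumulated cAMP is quantified by competitive antibody luminescence after overnight development.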

GIP-R = target: T1, GIP-R (Homo sapiens, UniProt P48546); assay: HitHunter cAMP assay (GIP-R); assay type: cell-based; settings: cAMP; for Emax: read-out: (Emax) GIP-R
T1 sequence (P48546 22-466): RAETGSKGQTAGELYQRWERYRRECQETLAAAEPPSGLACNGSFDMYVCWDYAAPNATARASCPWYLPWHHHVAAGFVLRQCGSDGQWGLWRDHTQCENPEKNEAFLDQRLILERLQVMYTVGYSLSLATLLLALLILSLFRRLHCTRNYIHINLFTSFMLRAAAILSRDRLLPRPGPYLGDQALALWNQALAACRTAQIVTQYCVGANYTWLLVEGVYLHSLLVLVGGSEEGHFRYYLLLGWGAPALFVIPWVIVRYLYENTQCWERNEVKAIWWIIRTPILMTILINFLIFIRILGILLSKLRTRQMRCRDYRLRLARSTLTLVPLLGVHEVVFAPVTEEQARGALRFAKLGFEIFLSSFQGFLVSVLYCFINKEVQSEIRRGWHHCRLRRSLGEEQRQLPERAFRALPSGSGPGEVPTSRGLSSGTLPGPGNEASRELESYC
Summary of the method: as §1

[1] = Table 3, read-out: EC50 GLP-1R/nM
[2] = Table 3A, read-out: EC50 GLP-1R/nM
[3] = Table 3, read-out: EC50 GIP-R/nM
[4] = Table 3A, read-out: EC50 GIP-R/nM

GLP-1R, sequence (P43220 24-463): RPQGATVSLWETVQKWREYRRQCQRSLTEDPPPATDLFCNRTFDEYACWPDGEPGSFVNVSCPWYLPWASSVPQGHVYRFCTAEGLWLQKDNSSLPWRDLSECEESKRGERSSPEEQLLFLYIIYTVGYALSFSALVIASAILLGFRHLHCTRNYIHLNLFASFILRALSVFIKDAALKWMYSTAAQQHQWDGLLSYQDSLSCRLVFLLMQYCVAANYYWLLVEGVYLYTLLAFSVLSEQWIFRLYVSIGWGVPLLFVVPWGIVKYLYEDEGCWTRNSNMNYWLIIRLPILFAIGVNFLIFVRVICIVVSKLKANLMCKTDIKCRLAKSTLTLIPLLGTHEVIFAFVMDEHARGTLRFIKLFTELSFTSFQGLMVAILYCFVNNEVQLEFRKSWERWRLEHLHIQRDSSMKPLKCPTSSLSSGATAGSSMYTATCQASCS

Compound | Emax (GLP-1R; Table 3) | Emax (GLP-1R; Table 3A) | Emax (GIP-R; Table 3) | Emax (GIP-R; Table 3A) | EC50 (GLP-1R; [1]) | EC50 (GLP-1R; [2]) | EC50 (GIP-R; [3]) | EC50 (GIP-R; [4]) | EC50 (GLP-1R; EC50 GLP-1R/nM, Table 3) | EC50 (GLP-1R; EC50 GLP-1R/nM, Table 3A) | EC50 (GIP-R; EC50 GIP-R/nM, Table 3) | EC50 (GIP-R; EC50 GIP-R/nM, Table 3A)
CCCCCCCCCCCCCCCC(=O)N[C@@H](CCC(=O)NCCCC[C@H](NC(=O)[C@H](CO)NC(=O)[C@@H]1CCCN1C(=O)[C@@H]1CCCN1C(=O)[C@@H]1CCCN1C(=O)[C@H](C)NC(=O)CNC(=O)[C@H](CO)NC(=O)[C@H](CO)NC(=O)[C@@H]1CCCN1C(=O)CNC(=O)CNC(=O)[C@H](C)NC(=O)[C@H](CC(C)C)NC(=O)[C@H](CC(C)C)NC(=O)[C@H](Cc1c[nH]c2ccccc12)NC(=O)[C@H](CC(N)=O)NC(=O)[C@@H](NC(=O)[C@H](Cc1ccccc1)NC(=O)[C@H](CCC(=O)O)NC(=O)C(C)(C)NC(=O)[C@H](C)NC(=O)[C@H](C)NC(=O)[C@H](CCC(N)=O)NC(=O)[C@H](CCCCN)NC(=O)[C@H](CC(=O)O)NC(=O)[C@H](CC(C)C)NC(=O)[C@H](Cc1ccc(O)cc1)NC(=O)[C@@H](NC(=O)[C@H](CO)NC(=O)[C@H](Cc1ccc(O)cc1)NC(=O)[C@H](CC(=O)O)NC(=O)[C@H](CO)NC(=O)[C@@H](NC(=O)[C@H](Cc1ccccc1)NC(=O)[C@@H](NC(=O)CNC(=O)[C@H](CCC(=O)O)NC(=O)CSCC(=O)NCCN1C(=O)CC[C@@H]1C)[C@@H](C)O)[C@@H](C)O)[C@@H](C)CC)C(C)C)C(N)=O)C(=O)O (single isomer, unassigned) [Compound 75] | 99% | 99% | 39% | 39% | – | – | – | – | – | – | – | –
CCCCCCCCCCCCCCCC(=O)N[C@@H](CCC(=O)NCCCC[C@H](NC(=O)[C@H](CO)NC(=O)[C@@H]1CCCN1C(=O)[C@@H]1CCCN1C(=O)[C@@H]1CCCN1C(=O)[C@H](C)NC(=O)CNC(=O)[C@H](CO)NC(=O)[C@H](CO)NC(=O)[C@@H]1CCCN1C(=O)CNC(=O)CNC(=O)[C@H](C)NC(=O)[C@H](CC(C)C)NC(=O)[C@H](CC(C)C)NC(=O)[C@H](Cc1c[nH]c2ccccc12)NC(=O)[C@H](CC(N)=O)NC(=O)[C@@H](NC(=O)[C@H](Cc1ccccc1)NC(=O)[C@H](CCC(=O)O)NC(=O)C(C)(C)NC(=O)[C@H](C)NC(=O)[C@H](C)NC(=O)[C@H](CCC(N)=O)NC(=O)[C@H](CCCCN)NC(=O)[C@H](CC(=O)O)NC(=O)[C@H](CC(C)C)NC(=O)[C@H](Cc1ccc(O)cc1)NC(=O)[C@@H](NC(=O)[C@H](CO)NC(=O)[C@H](Cc1ccc(O)cc1)NC(=O)[C@H](CC(=O)O)NC(=O)[C@H](CO)NC(=O)[C@@H](NC(=O)[C@H](Cc1ccccc1)NC(=O)[C@@H](NC(=O)CNC(=O)[C@H](CCC(=O)O)NC(=O)CSCC(=O)NCCN1C[C@@H](O)CC1=O)[C@@H](C)O)[C@@H](C)O)[C@@H](C)CC)C(C)C)C(N)=O)C(=O)O [Compound 45] | 100% | 100% | 42% | 42% | 0.1 to 1 nM | 0.1 to 1 nM | 1 to 10 nM | 1 to 10 nM | – | – | – | –
CCCCCCCCCCCCCCCC(=O)N[C@@H](CCC(=O)NCCCC[C@H](NC(=O)[C@H](CO)NC(=O)[C@@H]1CCCN1C(=O)[C@@H]1CCCN1C(=O)[C@@H]1CCCN1C(=O)[C@H](C)NC(=O)CNC(=O)[C@H](CO)NC(=O)[C@H](CO)NC(=O)[C@@H]1CCCN1C(=O)CNC(=O)CNC(=O)[C@H](C)NC(=O)[C@H](CC(C)C)NC(=O)[C@H](CC(C)C)NC(=O)[C@H](Cc1c[nH]c2ccccc12)NC(=O)[C@H](CC(N)=O)NC(=O)[C@@H](NC(=O)[C@H](Cc1ccccc1)NC(=O)[C@H](CCC(=O)O)NC(=O)C(C)(C)NC(=O)[C@H](C)NC(=O)[C@H](C)NC(=O)[C@H](CCC(N)=O)NC(=O)[C@H](CCCCN)NC(=O)[C@H](CC(=O)O)NC(=O)[C@H](CC(C)C)NC(=O)[C@H](Cc1ccc(O)cc1)NC(=O)[C@@H](NC(=O)[C@H](CO)NC(=O)[C@H](Cc1ccc(O)cc1)NC(=O)[C@H](CC(=O)O)NC(=O)[C@H](CO)NC(=O)[C@@H](NC(=O)[C@H](Cc1ccccc1)NC(=O)[C@@H](NC(=O)CNC(=O)[C@H](CCC(=O)O)NC(=O)CSCC(=O)NCCN1CC(=O)N(C)C1=O)[C@@H](C)O)[C@@H](C)O)[C@@H](C)CC)C(C)C)C(N)=O)C(=O)O [Compound 46] | 100% | 100% | 46% | 46% | 1 to 10 nM | 1 to 10 nM | 1 to 10 nM | 1 to 10 nM | – | – | – | –
CCCCCCCCCCCCCCCC(=O)N[C@@H](CCC(=O)NCCCC[C@H](NC(=O)[C@H](CO)NC(=O)[C@@H]1CCCN1C(=O)[C@@H]1CCCN1C(=O)[C@@H]1CCCN1C(=O)[C@H](C)NC(=O)CNC(=O)[C@H](CO)NC(=O)[C@H](CO)NC(=O)[C@@H]1CCCN1C(=O)CNC(=O)CNC(=O)[C@H](C)NC(=O)[C@H](CC(C)C)NC(=O)[C@H](CC(C)C)NC(=O)[C@H](Cc1c[nH]c2ccccc12)NC(=O)[C@H](CC(N)=O)NC(=O)[C@@H](NC(=O)[C@H](Cc1ccccc1)NC(=O)[C@H](CCC(=O)O)NC(=O)C(C)(C)NC(=O)[C@H](C)NC(=O)[C@H](C)NC(=O)[C@H](CCC(N)=O)NC(=O)[C@H](CCCCN)NC(=O)[C@H](CC(=O)O)NC(=O)[C@H](CC(C)C)NC(=O)[C@H](Cc1ccc(O)cc1)NC(=O)[C@@H](NC(=O)[C@H](CO)NC(=O)[C@H](Cc1ccc(O)cc1)NC(=O)[C@H](CC(=O)O)NC(=O)[C@H](CO)NC(=O)[C@@H](NC(=O)[C@H](Cc1ccccc1)NC(=O)[C@@H](NC(=O)CNC(=O)[C@H](CCC(=O)O)NC(=O)CSCC(=O)NCCN1CC[C@@H](O)C1=O)[C@@H](C)O)[C@@H](C)O)[C@@H](C)CC)C(C)C)C(N)=O)C(=O)O [Compound 47] | 100% | 100% | 24% | 24% | < 0.1 nM | < 0.1 nM | 1 to 10 nM | 10 to 100 nM | – | – | – | –
CCCCCCCCCCCCCCCC(=O)N[C@@H](CCC(=O)NCCCC[C@H](NC(=O)[C@H](CO)NC(=O)[C@@H]1CCCN1C(=O)[C@@H]1CCCN1C(=O)[C@@H]1CCCN1C(=O)[C@H](C)NC(=O)CNC(=O)[C@H](CO)NC(=O)[C@H](CO)NC(=O)[C@@H]1CCCN1C(=O)CNC(=O)CNC(=O)[C@H](C)NC(=O)[C@H](CC(C)C)NC(=O)[C@H](CC(C)C)NC(=O)[C@H](Cc1c[nH]c2ccccc12)NC(=O)[C@H](CC(N)=O)NC(=O)[C@@H](NC(=O)[C@H](Cc1ccccc1)NC(=O)[C@H](CCC(=O)O)NC(=O)C(C)(C)NC(=O)[C@H](C)NC(=O)[C@H](C)NC(=O)[C@H](CCC(N)=O)NC(=O)[C@H](CCCCN)NC(=O)[C@H](CC(=O)O)NC(=O)[C@H](CC(C)C)NC(=O)[C@H](Cc1ccc(O)cc1)NC(=O)[C@@H](NC(=O)[C@H](CO)NC(=O)[C@H](Cc1ccc(O)cc1)NC(=O)[C@H](CC(=O)O)NC(=O)[C@H](CO)NC(=O)[C@@H](NC(=O)[C@H](Cc1ccccc1)NC(=O)[C@@H](NC(=O)CNC(=O)[C@H](CCC(=O)O)NC(=O)CSCC(=O)NCCN1C(=O)C[C@@H](OC)C1=O)[C@@H](C)O)[C@@H](C)O)[C@@H](C)CC)C(C)C)C(N)=O)C(=O)O [Compound 48] | 104% | 104% | 65% | 65% | – | – | – | – | 0.1 to 1 nM | 0.1 to 1 nM | 0.1 to 1 nM | 0.1 to 1 nM
CCCCCCCCCCCCCCCC(=O)N[C@@H](CCC(=O)NCCCC[C@H](NC(=O)[C@H](CO)NC(=O)[C@@H]1CCCN1C(=O)[C@@H]1CCCN1C(=O)[C@@H]1CCCN1C(=O)[C@H](C)NC(=O)CNC(=O)[C@H](CO)NC(=O)[C@H](CO)NC(=O)[C@@H]1CCCN1C(=O)CNC(=O)CNC(=O)[C@H](C)NC(=O)[C@H](CC(C)C)NC(=O)[C@H](CC(C)C)NC(=O)[C@H](Cc1c[nH]c2ccccc12)NC(=O)[C@H](CC(N)=O)NC(=O)[C@@H](NC(=O)[C@H](Cc1ccccc1)NC(=O)[C@H](CCC(=O)O)NC(=O)C(C)(C)NC(=O)[C@H](C)NC(=O)[C@H](C)NC(=O)[C@H](CCC(N)=O)NC(=O)[C@H](CCCCN)NC(=O)[C@H](CC(=O)O)NC(=O)[C@H](CC(C)C)NC(=O)[C@H](Cc1ccc(O)cc1)NC(=O)[C@@H](NC(=O)[C@H](CO)NC(=O)[C@H](Cc1ccc(O)cc1)NC(=O)[C@H](CC(=O)O)NC(=O)[C@H](CO)NC(=O)[C@@H](NC(=O)[C@H](Cc1ccccc1)NC(=O)[C@@H](NC(=O)CNC(=O)[C@H](CCC(=O)O)NC(=O)CSCC(=O)NCCN1C(=O)C[C@H](OC)C1=O)[C@@H](C)O)[C@@H](C)O)[C@@H](C)CC)C(C)C)C(N)=O)C(=O)O [Compound 49] | 101% | 101% | 48% | 48% | – | – | – | – | 0.1 to 1 nM | 0.1 to 1 nM | 0.1 to 1 nM | 0.1 to 1 nM
